According to paper PMC12163827, “Identification of Novel Leishmania donovani Nucleoside Hydrolase Inhibitors from Banisteriopsis laevifolia Using Affinity Selection-Mass Spectrometry” (ACS Omega, 2025):
Read-outs that look alike come from different tables or passages of the source.

Columns and labels:
Format in all cases: biochemical
[1] = molecular target: T1, Leishmania donovani nucleoside hydrolase (LdNH) (Leishmania donovani, UniProt Q8WQX2); experiment: HPLC-DAD inosine hydrolysis assay with immobilized purified LdNH plus […] Triton X-100; also AS-MS (affinity ratio […])
T1 construct: gene iunh
T1 sequence (Q8WQX2 1-314): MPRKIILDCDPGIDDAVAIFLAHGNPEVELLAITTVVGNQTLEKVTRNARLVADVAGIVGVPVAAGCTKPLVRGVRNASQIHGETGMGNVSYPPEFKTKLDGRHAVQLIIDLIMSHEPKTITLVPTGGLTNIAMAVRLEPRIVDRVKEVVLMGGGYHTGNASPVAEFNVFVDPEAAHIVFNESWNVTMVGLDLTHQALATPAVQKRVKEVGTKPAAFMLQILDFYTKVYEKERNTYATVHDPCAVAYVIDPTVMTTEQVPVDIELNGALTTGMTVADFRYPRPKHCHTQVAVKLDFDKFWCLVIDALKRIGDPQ

[2] = molecular target: T1, Leishmania donovani nucleoside hydrolase (LdNH); experiment: as above; remark: listed apart in the source
[3] = molecular target: T1, Leishmania donovani nucleoside hydrolase (LdNH); experiment: HPLC-DAD inosine hydrolysis assay with immobilized LdNH, single concentration […] with Triton X-100; also AS-MS (affinity ratio […]); conditions: read-out: inhibition at 100 μmol/L (with Triton X-100) (%)
[4] = molecular target: T1, Leishmania donovani nucleoside hydrolase (LdNH); experiment: as above; conditions: read-out: inhibition at 100 μmol/L (with Triton X-100) (%); remark: listed apart in the source

For `O=c1c(O[C@@H]2O[C@H](CO)[C@@H](O)[C@H](O)[C@H]2O)c(-c2ccc(O)cc2)oc2cc(O)cc(O)c12` [astragalin], the IC50 [1] was 41.6 ± 8.9 µM.
Compound `O=c1c(O[C@@H]2O[C@H](CO)[C@@H](O)[C@H](O)[C@H]2O)c(-c2ccc(O)c(O)c2)oc2cc(O)cc(O)c12` [isoquercetin] has an IC50 [2] of 40.2 ± 16.6 µM.
`O=c1cc(-c2ccc(O)c(O)c2)oc2c([C@@H]3O[C@H](CO)[C@@H](O)[C@H](O)[C@H]3O)c(O)cc(O)c12` [orientin] showed an inhibition at 100 µM [3] of 30.4%.
For `C[C@@H]1O[C@@H](OC[C@H]2O[C@@H](Oc3c(-c4ccc(O)c(O)c4)oc4cc(O)cc(O)c4c3=O)[C@H](O)[C@@H](O)[C@@H]2O)[C@H](O)[C@H](O)[C@H]1O` [rutin], the inhibition at 100 µM [4] was 61.2%.
